Experiments:
[1] = target: T1, Protein farnesyltransferase subunit beta/geranylgeranyltransferase type-1 subunit alpha (Saccharomyces cerevisiae (strain ATCC 204508 / S288c), UniProt P22007+P29703); assay: Yeast FTase Assay; settings: pH 7.5
T1 sequence (P22007 whole entry): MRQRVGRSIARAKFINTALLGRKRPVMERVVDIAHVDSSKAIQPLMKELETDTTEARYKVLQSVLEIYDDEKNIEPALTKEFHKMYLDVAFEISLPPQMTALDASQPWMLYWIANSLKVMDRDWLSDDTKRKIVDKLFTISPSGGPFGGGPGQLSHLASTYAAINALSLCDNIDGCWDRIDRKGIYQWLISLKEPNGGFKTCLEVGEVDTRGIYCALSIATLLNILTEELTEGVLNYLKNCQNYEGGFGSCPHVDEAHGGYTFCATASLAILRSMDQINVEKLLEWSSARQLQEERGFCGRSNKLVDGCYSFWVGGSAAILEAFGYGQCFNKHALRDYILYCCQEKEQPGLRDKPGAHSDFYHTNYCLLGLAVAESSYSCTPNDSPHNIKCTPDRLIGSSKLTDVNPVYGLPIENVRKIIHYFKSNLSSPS
T1 sequence (P29703 whole entry): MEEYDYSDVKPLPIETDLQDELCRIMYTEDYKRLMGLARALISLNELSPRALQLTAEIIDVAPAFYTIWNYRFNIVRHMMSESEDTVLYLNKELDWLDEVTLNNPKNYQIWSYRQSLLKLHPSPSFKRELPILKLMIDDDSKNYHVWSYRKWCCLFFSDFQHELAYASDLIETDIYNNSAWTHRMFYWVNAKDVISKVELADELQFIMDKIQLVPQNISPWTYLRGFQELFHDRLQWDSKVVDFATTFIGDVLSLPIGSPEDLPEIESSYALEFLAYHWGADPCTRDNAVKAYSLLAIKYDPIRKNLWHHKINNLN
Experimental: Assays were realized on 96-well plates, prepared with Biomek NKMC and Biomek 3000 from Beckman Coulter and read on Wallac Victor fluorimeter from Perkin-Elmer. Per well, 20 μL of farnesyl pyrophosphate (10 μM) was added to 180 μL of a solution containing 2 μL of varied concentrations of potential inhibitors (dissolved in DMSO) and 178 μL of a solution composed by 0.1 mL of partially purified recombinant yeast FTase (2.2 mg/ mL) and 7.0 mL of dansyl-GCVLS peptide (in the following buffer: 5.8 mM DTT, 6 mM MgCl2, 12 μM ZnCl2 and 0.09% (w/v) CHAPS, 53 mM Tris/HCl, pH 7.5). Then the fluorescence development was recorded for 15 min(0.7 second per well, 20 repeats) at 30°C with an excitation filter at 340 nm and an emission filter at 486 nm. Each measurement was realized twice as duplicate ortriplicate.

[2] = target: T2, Protein farnesyltransferase alpha subunit/subunit beta (Trypanosoma brucei brucei, UniProt Q9NC76+Q9NC77); assay: T. brucei FTase Assay
T2 sequence (Q9NC77 whole entry): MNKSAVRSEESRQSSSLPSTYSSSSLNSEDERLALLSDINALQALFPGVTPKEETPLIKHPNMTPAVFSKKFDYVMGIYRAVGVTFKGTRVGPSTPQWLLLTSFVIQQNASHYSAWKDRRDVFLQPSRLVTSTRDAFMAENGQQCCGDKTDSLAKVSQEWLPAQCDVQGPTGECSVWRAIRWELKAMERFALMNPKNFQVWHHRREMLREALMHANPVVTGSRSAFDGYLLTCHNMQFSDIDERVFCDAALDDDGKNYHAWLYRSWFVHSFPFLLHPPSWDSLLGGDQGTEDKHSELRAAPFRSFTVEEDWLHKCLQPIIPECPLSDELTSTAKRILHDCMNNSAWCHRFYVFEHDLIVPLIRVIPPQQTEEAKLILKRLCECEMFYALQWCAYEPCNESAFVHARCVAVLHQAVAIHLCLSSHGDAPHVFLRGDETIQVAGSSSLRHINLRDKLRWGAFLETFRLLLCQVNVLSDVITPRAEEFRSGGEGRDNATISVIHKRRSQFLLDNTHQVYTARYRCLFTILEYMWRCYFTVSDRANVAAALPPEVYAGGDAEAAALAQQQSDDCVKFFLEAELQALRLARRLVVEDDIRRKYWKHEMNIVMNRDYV
T2 sequence (Q9NC76 whole entry): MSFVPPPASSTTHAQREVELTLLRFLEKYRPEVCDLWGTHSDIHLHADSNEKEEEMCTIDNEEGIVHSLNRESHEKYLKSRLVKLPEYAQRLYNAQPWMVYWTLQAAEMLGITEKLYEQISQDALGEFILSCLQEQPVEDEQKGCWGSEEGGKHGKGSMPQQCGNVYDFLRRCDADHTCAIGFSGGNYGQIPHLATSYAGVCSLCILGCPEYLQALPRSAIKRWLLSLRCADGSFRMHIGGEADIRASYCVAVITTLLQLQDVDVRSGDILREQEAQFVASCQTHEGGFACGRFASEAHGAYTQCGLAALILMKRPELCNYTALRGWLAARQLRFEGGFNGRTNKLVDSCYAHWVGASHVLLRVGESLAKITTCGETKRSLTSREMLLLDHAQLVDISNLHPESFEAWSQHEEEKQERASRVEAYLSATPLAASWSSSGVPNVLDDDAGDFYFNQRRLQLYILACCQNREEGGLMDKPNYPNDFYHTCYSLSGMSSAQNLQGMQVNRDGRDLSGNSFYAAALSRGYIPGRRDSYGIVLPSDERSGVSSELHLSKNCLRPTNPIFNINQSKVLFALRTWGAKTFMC
Experimental: Assays were realized on 96-well plates, as described for human FTase with the dansylated peptide Dansyl-GCAIM and the solution contains 15 μL of partially purified Tb-FTase (1.0 mg/mL) in 1 mL peptide solution.

[3] = target: Protein farnesyltransferase subunit beta/geranylgeranyltransferase type-1 subunit alpha (Homo sapiens, UniProt P49354+P49356); assay: Human FTase Assay
Experimental: Assays were realized on 96-well plates, as described for yeast FTase but octyl-D-glucopyranoside (0.18%) was used instead of CHAPS and the solution contains 5 μLof partially purified human FTase (1.5 mg/mL)7 in 1 mL peptide solution.

SMILES	IC50 [1] [µM]	IC50 [2] [µM]	IC50 [3] [µM]
COc1cccc(-c2c(C(=O)O)sc(SC(C)C)c2C#N)c1 [3-(3-Methoxyphenyl)-4-cyano-5-(isopropylthio)thiophene-2-carboxylic acid (1k)]	1.6	18	–
Cc1cccc(-c2c(C(=O)O)sc(SC(C)C)c2C#N)c1 [3-(3-Tolyl)-4-cyano-5-(isopropylthio)thiophene-2-carboxylic acid (1u)]	1.4	34	16
CC(C)Sc1sc(C(=O)O)c(-c2cccc(Cl)c2)c1C#N [3-(3-Chlorophenyl)-4-cyano-5-(isopropylthio)thiophene-2-carboxylic acid (1b)]	1.3	14.5	48
CC(C)Sc1sc(C(=O)O)c(-c2ccc(Cl)cc2)c1C#N [3-(4-Chlorophenyl)-4-cyano-5-(isopropylthio)thiophene-2-carboxylic acid (1a)]	0.11	10.6	–
COC(=O)c1cccc(-c2c(C(=O)O)sc(SC(C)C)c2C#N)c1 [3-(3-(Methoxycarbonyl)phenyl)-4-cyano-5-(isopropylthio)thiophene-2-carboxylic acid (1q)]	0.62	6.9	7
CC(C)Sc1sc(C(=O)O)c(-c2cccc3ccccc23)c1C#N [3-(1-Naphthyl)-4-cyano-5-(isopropylthio)thiophene-2-carboxylic acid (1x)]	1.1	10.5	32
COc1ccc(-c2c(C(=O)O)sc(SC(C)C)c2C#N)cc1 [3-(4-Methoxyphenyl)-4-cyano-5-(isopropylthio)thiophene-2-carboxylic acid (1j)]	0.25	8.6	–
Cc1ccc(-c2c(C(=O)O)sc(SC(C)C)c2C#N)cc1 [3-(4-Tolyl)-4-cyano-5-(isopropylthio)thiophene-2-carboxylic acid (1t)]	0.19	17	21
CC(C)Sc1sc(C(=O)O)c(-c2ccccc2Cl)c1C#N [3-(2-Chlorophenyl)-4-cyano-5-(isopropylthio)thiophene-2-carboxylic acid (1c)]	1.4	37	> 50
CC(C)Sc1sc(C(=O)O)c(-c2cccc(-c3ccccc3)c2)c1C#N [3-(3-Biphenyl)-4-cyano-5-(isopropylthio)thiophene-2-carboxylic acid (1aa)]	0.64	5.4	3.3
COc1ccccc1-c1c(C(=O)O)sc(SC(C)C)c1C#N [3-(2-Methoxyphenyl)-4-cyano-5-(isopropylthio)thiophene-2-carboxylic acid (1l)]	9.7	37	> 50
CC(C)Sc1sc(C(=O)O)c(-c2ccccc2)c1C#N [3-Phenyl-4-cyano-5-(isopropylthio)thiophene-2-carboxylic acid (1s)]	0.61	42	34
CSCC[C@H](NC(=O)c1ccc(NC[C@@H](N)CS)cc1-c1ccccc1)C(=O)O [2-{[5-((R)-2-Amino-3-mercapto-propylamino)-biphenyl-2-carbonyl]-amino}-4-methylsulfanyl-butyric acid]	0.00078	0.01	–
CC(C)Sc1sc(C(=O)O)c(-c2ccc(-c3ccccc3)cc2)c1C#N [3-(4-Biphenyl)-4-cyano-5-(isopropylthio)thiophene-2-carboxylic acid (1z)]	2.7	32	5.5
CC(C)Sc1sc(C(=O)O)c(-c2cccc(C(F)(F)F)c2)c1C#N [3-(3-(Trifluoromethyl)phenyl)-4-cyano-5-(isopropylthio)thiophene-2-carboxylic acid (1h)]	1.6	19	34
COC(=O)c1ccc(-c2c(C(=O)O)sc(SC(C)C)c2C#N)cc1 [3-(4-(Methoxycarbonyl)phenyl)-4-cyano-5-(isopropylthio)thiophene-2-carboxylic acid (1p)]	0.085	14	12.8
Cc1ccccc1-c1c(C(=O)O)sc(SC(C)C)c1C#N [3-(2-Tolyl)-4-cyano-5-(isopropylthio)thiophene-2-carboxylic acid (1v)]	3.1	> 50	> 50
CC(C)Sc1sc(C(=O)O)c(-c2cccc3oc4ccccc4c23)c1C#N [3-(1-Dibenzofuranyl)-4-cyano-5-(isopropylthio)thiophene-2-carboxylic acid (1gg)]	1	3.3	15
CC(C)Sc1sc(C(=O)O)c(-c2cccc(F)c2)c1C#N [3-(3-Fluorophenyl)-4-cyano-5-(isopropylthio)thiophene-2-carboxylic acid (1e)]	0.46	32	23
CC(C)Sc1sc(C(=O)O)c(-c2ccccc2F)c1C#N [3-(2-Fluorophenyl)-4-cyano-5-(isopropylthio)thiophene-2-carboxylic acid (1f)]	1.3	46	> 50
CC(C)Sc1sc(C(=O)O)c(-c2ccc(C(F)(F)F)cc2)c1C#N [3-(4-(Trifluoromethyl)phenyl)-4-cyano-5-(isopropylthio)thiophene-2-carboxylic acid (1g)]	0.58	–	–
CC(C)Sc1sc(C(=O)O)c(-c2ccc(F)cc2)c1C#N [3-(4-Fluorophenyl)-4-cyano-5-(isopropylthio)thiophene-2-carboxylic acid (1d)]	0.27	29	20
CC(C)Sc1sc(C(=O)O)c(-c2ccc3ccccc3c2)c1C#N [3-(2-Naphthyl)-4-cyano-5-(isopropylthio)thiophene-2-carboxylic acid (1y)]	0.32	9.7	4.8
